Test results as given in patent US7897727B2, “Bioactive peptide for cell adhesion” (University of Delaware, priority 2000, dated 2011).
Entries after “also recorded” stand apart in the source; their conditions may differ. No end group written: not given here.

Tests used:
HES cells = assay: Cell adhesion assay on coated 96 well plates (MTS), HES cells; assay type: cell-based, human; conditions: peptide conjugated to BSA coated on MAXISORP plates; 1 hr attachment at 37° C.; serum-free RPMI 1640
Experimental: (§1) Concentrated stocks of rat-tail type I collagen were diluted to designated concentrations in 0.02 N acetic acid and coated overnight on MAXISORP® 96 well plates at room temperature (RT). Poly-L-lysine (PLL), heat-denatured bovine serum albumin (BSA), the peptide of SEQ ID NO:1 conjugated to BSA (indicated in FIGS. 4-7 as “PLN4”) and a scrambled peptide from domain IV of perlecan having the amino acid sequence TGKSVGGSLIWPVRGQH (SEQ ID NO:4) conjugated to BSA (indicated in FIGS. 4-7 as “PLN4*”) were diluted in 1×phosphate buffered saline (PBS) and also coated overnight on MAXISORP® 96 well plates at RT. The following day, the plates were washed three times with 1×PBS to remove any residue and blocked with 1% heat-denatured BSA for 1 hr at 37° C. Following blocking, plates were washed once with 1×PBS. Cells from various cell lines were harvested with 0.5 mM EDTA and collected by centrifugation. Pelleted cells were resuspended in serum-free RPMI 1640 and plated at a concentration of 2.5×10^4 cells per 100 μl. Cells were allowed to attach to the wells for 1 hr at 37° C. Next, the wells were washed once with 1% heat-denatured BSA to remove any unattached cells. Cell adhesion was quantified as in Example 1, using the CELLTITER 96® AQueous Non-Radioactive Cell Proliferation Assay (MTS). […] Following incubation, an Elisa plate reader was used to measure optical density. […]

PC3 cells = assay: Cell adhesion assay on coated 96 well plates (MTS), PC3 cells; assay type: cell-based; conditions: peptide conjugated to BSA coated on MAXISORP plates; 1 hr attachment at 37° C.; serum-free RPMI 1640
Experimental: as §1

[1] = system: marrow stromal cells HS27a; assay: Cell adhesion assay on coated 96 well plates (MTS), HS27a cells; assay type: cell-based; conditions: peptide conjugated to BSA coated on MAXISORP plates; 1 hr attachment at 37° C.; serum-free RPMI 1640
Experimental: as §1

marrow stromal cells HS5 = assay: Cell adhesion assay on coated 96 well plates (MTS), HS5 cells; assay type: cell-based; conditions: peptide conjugated to BSA coated on MAXISORP plates; 1 hr attachment at 37° C.; serum-free RPMI 1640
Experimental: as §1

[2] = system: multipotent mouse mesenchymal stem cells, 10T1/2; assay: Cell adhesion of 10T1/2 cells to coated plastic (CELLTITER 96 MTS assay); assay type: cell-based
Experimental: Adhesion is measured by the cell proliferation assay CELLTITER 96® AQueous Non-Radioactive Cell Proliferation Assay (MTS) sold by Promega, Inc. The CELLTITER 96® AQueous Non-Radioactive Cell Proliferation Assay is a calorimetric method for determining the number of viable cells in proliferation, cytotoxicity or chemosensitivity assays. The CELLTITER 96® AQueous Non-Radioactive Cell Proliferation Assay is composed of solutions of a tetrazolium compound (3-(4,5-dimethylthiazol-2-yl)-5-(3-carboxymethoxyphenyl)-2-(4-su-lfophenyl)-2H-tetrazolium, inner salt; MTS) and an electron coupling reagent (phenazine methosulfate) PMS. MTS is bioreduced by cells into a formazan that is soluble in tissue culture medium. The absorbance of the formazan at 490 nm can be measured directly from 96 well assay plates without additional processing. The conversion of MTS into the aqueous soluble formazan is accomplished by dehydrogenase enzymes found in metabolically active cells. The quantity of formazan product as measured by the amount of 490 nm absorbance is directly proportional to the number of living cells in culture.
No adhesion to uncoated plastic occurred during the 30 minute time period of this study. BSA (bovine serum albumin) and poly-L-lysine (PLL) were used as coating controls. Collagen I, a known adhesive protein substrate for these cells, served as positive control. […]

Sequence | cell adhesion / attachment and spreading, HES cells (HES cells) | cell adhesion / attachment and spreading, PC3 cells (PC3 cells) | cell adhesion / attachment and spreading, HS27a cells [1] | cell adhesion / attachment and spreading, HS5 cells (marrow stromal cells HS5) | adhesion of 10T1/2 cells ([2]; peptide conjugated to BSA, coated onto plastic, 30 minute time period, MTS absorbance 490 nm, listed as SEQ ID NO:1) | focal adhesion formation of 10T1/2 cells (photomicrographs) ([2]; plastic coated with BSA conjugated to the polypeptide)
TGKSVGGSLIWPVRGQH (also: conjugated to BSA) [PLN4*, scrambled peptide from domain IV of perlecan, conjugated to BSA, reference compound] | cell attachment and spreading did not occur | cell attachment and spreading did not occur | cell attachment and spreading did not occur | cell attachment and spreading did not occur | – | –
TWSKVGGHLRPGIVQSG (also: conjugated to BSA; listed as Homo sapiens) [PLN4, adhesive polypeptide derived from domain IV of perlecan; tested conjugated to BSA] | best adhesion and rapid focal adhesion formation of these four cell types | best adhesion and rapid focal adhesion formation of these four cell types | did not bind to the peptide | did not bind to the peptide | consistently strong; also recorded: best adhesion of the cell types reported herein | adhesion is followed by focal adhesion formation
